According to the NIST ThermoML archive (doi:10.1021/acs.jced.7b00713):
± gives the expanded uncertainty stated by the source.

Test: molar heat capacity at constant pressure
Details: Liquid, Flow calorimetry

F/C=C/C(F)(F)F [trans-1,3,3,3-tetrafluoropropene]
Details | molar heat capacity at constant pressure [J/K/mol]
313.46 K, 3000 kPa | 160.8 ± 4.8
313.47 K, 3980 kPa | 158.97 ± 4.8
313.47 K, 4490 kPa | 157.95 ± 4.8
313.48 K, 3490 kPa | 159.89 ± 4.8
313.48 K, 5010 kPa | 157.04 ± 4.7
313.49 K, 1040 kPa | 165.36 ± 5
313.49 K, 5490 kPa | 156.58 ± 4.7
313.49 K, 6010 kPa | 155.67 ± 4.7
313.49 K, 6990 kPa | 153.61 ± 4.6
313.49 K, 7470 kPa | 152.93 ± 4.6
313.5 K, 1510 kPa | 164.22 ± 4.9
313.5 K, 7990 kPa | 152.36 ± 4.6
313.51 K, 2010 kPa | 163.08 ± 4.9
313.51 K, 6510 kPa | 154.53 ± 4.7
313.51 K, 8500 kPa | 151.79 ± 4.6
313.52 K, 2480 kPa | 162.4 ± 4.9
313.52 K, 8990 kPa | 150.99 ± 4.6
313.52 K, 9510 kPa | 150.65 ± 4.6
313.53 K, 10000 kPa | 149.96 ± 4.6
323.28 K, 3520 kPa | 163.76 ± 4.9
323.28 K, 4030 kPa | 162.4 ± 4.9
323.29 K, 4530 kPa | 161.25 ± 4.8
323.29 K, 4990 kPa | 160.46 ± 4.8
323.29 K, 7490 kPa | 155.89 ± 4.7
323.29 K, 8010 kPa | 154.75 ± 4.7
323.29 K, 8520 kPa | 154.18 ± 4.7
323.29 K, 9040 kPa | 153.04 ± 4.6
323.31 K, 5490 kPa | 159.66 ± 4.8
323.31 K, 7030 kPa | 156.92 ± 4.7
323.32 K, 3010 kPa | 164.68 ± 4.9
323.32 K, 6010 kPa | 158.63 ± 4.8
323.33 K, 1510 kPa | 168.9 ± 5.1
323.33 K, 2010 kPa | 167.41 ± 5
323.33 K, 2500 kPa | 165.93 ± 5
323.33 K, 6480 kPa | 157.83 ± 4.8
323.34 K, 9490 kPa | 152.7 ± 4.6
323.36 K, 10010 kPa | 151.79 ± 4.6
333.08 K, 1550 kPa | 178.13 ± 5.4
333.08 K, 2060 kPa | 175.62 ± 5.2
333.11 K, 2510 kPa | 173.69 ± 5.2
333.11 K, 3500 kPa | 170.26 ± 5.1
333.13 K, 3030 kPa | 172.09 ± 5.1
333.13 K, 7490 kPa | 160.8 ± 4.8
333.14 K, 8040 kPa | 159.32 ± 4.8
333.15 K, 4000 kPa | 169.01 ± 5.1
333.15 K, 6520 kPa | 162.4 ± 4.9
333.15 K, 7020 kPa | 161.37 ± 4.9
333.16 K, 6010 kPa | 163.54 ± 4.9
333.16 K, 8500 kPa | 158.75 ± 4.8
333.18 K, 4980 kPa | 166.27 ± 5
333.18 K, 5500 kPa | 164.56 ± 4.9
333.19 K, 4500 kPa | 167.76 ± 5
333.19 K, 9020 kPa | 158.06 ± 4.8
333.2 K, 10080 kPa | 155.89 ± 4.7
333.21 K, 9510 kPa | 157.38 ± 4.7
343.53 K, 2040 kPa | 185.77 ± 5.6
343.57 K, 2550 kPa | 183.04 ± 5.5
343.57 K, 3000 kPa | 180.3 ± 5.5
343.59 K, 3540 kPa | 178.36 ± 5.4
343.6 K, 4040 kPa | 175.74 ± 5.2
343.61 K, 4540 kPa | 173.23 ± 5.2
343.62 K, 5040 kPa | 171.75 ± 5.1
343.62 K, 5510 kPa | 169.69 ± 5.1
343.62 K, 10070 kPa | 157.61 ± 4.8
343.63 K, 9080 kPa | 160 ± 4.8
343.63 K, 9530 kPa | 159.09 ± 4.8
343.64 K, 6050 kPa | 168.44 ± 5
343.64 K, 6590 kPa | 166.61 ± 5
343.64 K, 7070 kPa | 165.25 ± 5
343.64 K, 7510 kPa | 163.88 ± 4.9
343.64 K, 8090 kPa | 162.17 ± 4.9
343.65 K, 8480 kPa | 160.91 ± 4.8
353.55 K, 2550 kPa | 196.49 ± 5.9
353.55 K, 3510 kPa | 188.4 ± 5.7
353.58 K, 3040 kPa | 192.05 ± 5.8
353.61 K, 5010 kPa | 178.36 ± 5.4
353.61 K, 5510 kPa | 176.54 ± 5.4
353.62 K, 6040 kPa | 175.17 ± 5.2
353.64 K, 4520 kPa | 181.44 ± 5.5
353.64 K, 6530 kPa | 173.69 ± 5.2
353.64 K, 7050 kPa | 172.54 ± 5.1
353.65 K, 7500 kPa | 171.63 ± 5.1
353.65 K, 7970 kPa | 170.72 ± 5.1
353.66 K, 4050 kPa | 184.52 ± 5.6
353.67 K, 8480 kPa | 170.04 ± 5.1
353.68 K, 9030 kPa | 168.67 ± 5
353.68 K, 9510 kPa | 168.21 ± 5
353.68 K, 10090 kPa | 166.96 ± 5
363.56 K, 3500 kPa | 207.67 ± 6.3
363.56 K, 4000 kPa | 200.03 ± 6
363.57 K, 3000 kPa | 219.53 ± 6.6
363.61 K, 4510 kPa | 194.78 ± 5.8
363.61 K, 5520 kPa | 186.46 ± 5.6
363.62 K, 4990 kPa | 190.34 ± 5.7
363.63 K, 6020 kPa | 182.81 ± 5.5
363.64 K, 6520 kPa | 180.19 ± 5.4
363.64 K, 6990 kPa | 177.33 ± 5.4
363.64 K, 7530 kPa | 175.05 ± 5.2
363.64 K, 8010 kPa | 173.12 ± 5.2
363.65 K, 8530 kPa | 171.4 ± 5.1
363.65 K, 9050 kPa | 170.15 ± 5.1
363.66 K, 9450 kPa | 169.01 ± 5.1
363.66 K, 9990 kPa | 167.76 ± 5
373.35 K, 3540 kPa | 259.44 ± 8
373.42 K, 4030 kPa | 231.73 ± 7.1
373.42 K, 4510 kPa | 216.91 ± 6.6
373.43 K, 5010 kPa | 206.42 ± 6.3
373.44 K, 5540 kPa | 199.23 ± 6
373.47 K, 6020 kPa | 194.1 ± 5.8
373.48 K, 7010 kPa | 185.66 ± 5.6
373.49 K, 6530 kPa | 189.54 ± 5.7
373.49 K, 7500 kPa | 183.04 ± 5.5
373.5 K, 8030 kPa | 179.62 ± 5.4
373.51 K, 8510 kPa | 177.45 ± 5.4
373.56 K, 9050 kPa | 175.4 ± 5.2
373.57 K, 9430 kPa | 174.48 ± 5.2
373.59 K, 9990 kPa | 172.66 ± 5.1
391.65 K, 4520 kPa | 525.5 ± 21
392.2 K, 5020 kPa | 310.99 ± 13
392.38 K, 5470 kPa | 257.73 ± 8.2
392.46 K, 6010 kPa | 226.37 ± 7
392.52 K, 6540 kPa | 210.06 ± 6.4
392.57 K, 7060 kPa | 200.6 ± 6
392.6 K, 7560 kPa | 194.55 ± 5.8
392.63 K, 8030 kPa | 191.02 ± 5.7
392.67 K, 8510 kPa | 189.88 ± 5.7
392.72 K, 9070 kPa | 188.05 ± 5.7
392.75 K, 10000 kPa | 187.03 ± 5.6
392.77 K, 9520 kPa | 188.51 ± 5.7
392.77 K, 10010 kPa | 187.48 ± 5.6
